Assay: Inhibition of [3H]-TCP binding to PCP receptor obtained from tissue homogenate preparation of fresh whole rat brain minus cerebellum

| SMILES | IC50 [µM] |
| --- | --- |
| c1ccc2c(c1)C1CCC2(N2CCCCC2)C1 (stereo not drawn) [1-(3,4-Dihydro-2H-1,4-methano-naphthalen-1-yl)-piperidine] | 107 |
| c1ccc2c(c1)C1CCC2(N2CCCCC2)CC1 [1-Tricyclo[6.2.2.0*2,7*]dodeca-2(7),3,5-trien-1-yl-piperidine] | 118 |
| c1ccc2c(c1)C1CCCCC21N1CCCCC1 (stereo not drawn) [1-(1,3,4,8b-Tetrahydro-2H-biphenylen-4a-yl)-piperidine] | 4.27 |

From BindingDB's records for doi:10.1021/jm970059p (University of Illinois At Chicago, 1998)
